Consider 11 molecules from patent US20250163056A1, “NONMUSCLE MYOSIN II INHIBITORS” (The University of Florida Research Foundation, Inc., priority 2018, published 2025).

Data set [1] in a line: Photostability, percentage remaining undegraded under illumination or in the dark. As to conditions: for Photostability 4 hours: percentage remaining undegraded after 4 hours illumination; for Photostability 24 hours: percentage remaining undegraded after 24 hours illumination; for Photostability Dark (24 h): percentage remaining undegraded in the dark.
The next data set has as its target Rabbit skeletal myosin. Description: Skeletal muscle myosin II actin-activated ATPase assay. As to conditions: 20 nM skeletal muscle myosin II; read-out: SKMMII KI. Format: biochemical. In outline:
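Inhibitory constants come from a quadratic one-site fit of 16-point, triplicate dose-response data, highest compound concentration 50 uM. Rates are slopes of NADH fluorescence decline over 30 min, coupling ATP turnover of 20 nM rabbit skeletal myosin II with 10 μM actin and 1 mM ATP via PK/LDH, pH 7.0, 25 °C.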

The target in another data set is Bovine cardiac myosin (Bos taurus (Bovine), UniProt Q9BE39). The data set can be described thus: Cardiac muscle myosin II actin-activated ATPase assay (NADH-coupled). Format: biochemical. Also on record: key to Ratio CMMII:NMII Ki/EC50: NMII-sel: no Ki value for cardiac myosin II could be determined; the compounds had no detectable inhibitory properties versus the cardiac myosin II. As to conditions: for Ki: 300 nM cardiac myosin, 10 μM actin, 25° C., read-out: CMMII KI; for Ratio CMMII:NMII Ki/EC50: cardiac myosin II Ki over nonmuscle myosin II EC50. The essentials: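 Inhibitory constants came from a quadratic one-to-one binding fit of 16-point dose-responses (highest final 50 uM, triplicate). Rates were NADH-calibrated fluorescence slopes over 30 min at 25° C, with 300 nM bovine cardiac myosin, 10 μM actin and 1 mM ATP coupled through PK/LDH in pH 7.0 MOPS buffer.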
Bovine cardiac myosin, sequence (Q9BE39 whole entry): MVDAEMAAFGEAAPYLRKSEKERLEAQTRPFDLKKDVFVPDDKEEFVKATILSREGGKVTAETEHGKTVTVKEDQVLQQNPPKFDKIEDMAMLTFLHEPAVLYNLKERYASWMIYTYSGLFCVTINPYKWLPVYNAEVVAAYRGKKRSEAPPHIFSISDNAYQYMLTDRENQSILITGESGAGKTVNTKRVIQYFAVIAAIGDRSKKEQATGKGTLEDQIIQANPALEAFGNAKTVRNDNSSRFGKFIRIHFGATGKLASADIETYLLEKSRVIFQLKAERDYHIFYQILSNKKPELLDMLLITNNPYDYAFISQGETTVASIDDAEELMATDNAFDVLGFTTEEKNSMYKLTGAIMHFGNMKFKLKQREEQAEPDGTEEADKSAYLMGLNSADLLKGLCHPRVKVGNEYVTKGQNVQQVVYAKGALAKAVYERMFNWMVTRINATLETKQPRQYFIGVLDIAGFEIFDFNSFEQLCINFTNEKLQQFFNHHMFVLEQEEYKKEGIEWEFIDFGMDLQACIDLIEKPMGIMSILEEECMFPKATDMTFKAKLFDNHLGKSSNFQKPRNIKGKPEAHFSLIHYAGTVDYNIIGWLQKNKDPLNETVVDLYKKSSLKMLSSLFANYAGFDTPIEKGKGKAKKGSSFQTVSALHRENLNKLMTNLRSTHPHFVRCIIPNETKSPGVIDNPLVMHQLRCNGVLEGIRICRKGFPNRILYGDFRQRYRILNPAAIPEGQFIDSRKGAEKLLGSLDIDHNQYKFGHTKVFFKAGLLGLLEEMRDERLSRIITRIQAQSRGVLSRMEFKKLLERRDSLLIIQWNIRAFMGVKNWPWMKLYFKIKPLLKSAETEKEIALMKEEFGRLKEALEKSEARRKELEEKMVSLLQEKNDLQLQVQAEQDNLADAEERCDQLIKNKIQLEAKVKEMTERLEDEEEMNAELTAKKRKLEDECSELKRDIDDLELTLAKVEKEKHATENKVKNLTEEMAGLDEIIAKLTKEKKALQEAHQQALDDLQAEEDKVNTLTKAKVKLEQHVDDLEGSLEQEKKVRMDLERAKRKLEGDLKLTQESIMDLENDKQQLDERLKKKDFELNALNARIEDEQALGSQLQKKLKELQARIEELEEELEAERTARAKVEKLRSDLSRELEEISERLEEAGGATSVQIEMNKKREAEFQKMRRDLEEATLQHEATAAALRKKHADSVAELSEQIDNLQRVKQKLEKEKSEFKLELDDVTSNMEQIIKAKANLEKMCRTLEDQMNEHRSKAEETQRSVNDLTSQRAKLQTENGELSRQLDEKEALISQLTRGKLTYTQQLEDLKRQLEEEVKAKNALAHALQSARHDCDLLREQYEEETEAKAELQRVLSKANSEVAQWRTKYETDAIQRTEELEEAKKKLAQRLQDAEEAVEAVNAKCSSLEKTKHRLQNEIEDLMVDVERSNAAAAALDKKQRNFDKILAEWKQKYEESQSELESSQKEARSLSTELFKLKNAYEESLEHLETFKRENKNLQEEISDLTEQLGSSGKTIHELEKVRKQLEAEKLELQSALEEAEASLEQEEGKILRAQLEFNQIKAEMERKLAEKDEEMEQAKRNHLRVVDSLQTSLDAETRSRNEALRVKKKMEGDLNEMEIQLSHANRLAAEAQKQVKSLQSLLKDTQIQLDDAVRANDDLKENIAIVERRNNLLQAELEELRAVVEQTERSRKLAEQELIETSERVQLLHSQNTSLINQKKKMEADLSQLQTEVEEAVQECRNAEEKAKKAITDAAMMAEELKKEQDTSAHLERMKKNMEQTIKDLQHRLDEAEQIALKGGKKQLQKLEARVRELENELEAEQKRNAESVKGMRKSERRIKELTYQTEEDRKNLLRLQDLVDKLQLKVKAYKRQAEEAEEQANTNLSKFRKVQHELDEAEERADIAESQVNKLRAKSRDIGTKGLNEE
Bovine cardiac myosin, sequence (P85100 whole entry partner): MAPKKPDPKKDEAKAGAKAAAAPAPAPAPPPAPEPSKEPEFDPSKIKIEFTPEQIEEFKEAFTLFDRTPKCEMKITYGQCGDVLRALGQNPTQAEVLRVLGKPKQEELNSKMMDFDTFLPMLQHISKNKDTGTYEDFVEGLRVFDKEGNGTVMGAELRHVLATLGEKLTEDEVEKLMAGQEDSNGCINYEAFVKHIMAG
Bovine cardiac myosin, sequence (Q3SZE5 whole entry partner): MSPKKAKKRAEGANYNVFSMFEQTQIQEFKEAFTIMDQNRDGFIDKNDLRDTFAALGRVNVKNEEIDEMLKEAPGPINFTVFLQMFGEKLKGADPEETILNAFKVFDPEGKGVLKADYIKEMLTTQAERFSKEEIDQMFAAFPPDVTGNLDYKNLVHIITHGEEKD

For `Cc1ccc2c(c1)C(=O)[C@]1(O)CCN(c3ccc4ncsc4c3)C1=N2` [BPN-0027036], in data set [1], the “Photostability 4 hours” value stood at 90.2%, the “Photostability 24 hours” value came to 24.7% and the “Photostability Dark (24 h)” value was 97.4%. Further, the Ki (usually the dissociation constant of the complex between target and ligand, obtained from inhibition or displacement) at Rabbit skeletal myosin stood at 4.9 µM. At Bovine cardiac myosin, the Ki came to 22 µM and the “Ratio CMMII:NMII Ki/EC50” value is on record as 7.3.

As to `COc1cc(N2CC[C@@]3(O)C(=O)c4cc(C)c(C(F)(F)F)cc4N=C23)ccn1` [BPN-0027037], in data set [1], the “Photostability 4 hours” value is on record as greater than 99%, the “Photostability 24 hours” value was greater than 99% and the “Photostability Dark (24 h)” value is greater than 99%. Further, the Ki on Rabbit skeletal myosin amounted to 18 µM. The “Ratio CMMII:NMII Ki/EC50” value at Bovine cardiac myosin was “NMII-sel”.

For `CCc1cc2c(s1)N=C1N(c3ccc(C#N)cc3)CC[C@@]1(O)C2=O` [BPN-0027038], in data set [1], the “Photostability 4 hours” value was greater than 99%, the “Photostability 24 hours” value was 98.7% and the “Photostability Dark (24 h)” value is greater than 99%. In addition, the Ki on Rabbit skeletal myosin is 0.61 µM. Moreover, on Bovine cardiac myosin, the Ki amounted to 17 µM and the “Ratio CMMII:NMII Ki/EC50” value was found to be 6.3.

As to `Cc1ccc2c(c1)C(=O)[C@]1(O)CCN(c3ccc4cccnc4c3)C1=N2` [BPN-0027039], in data set [1], the “Photostability 4 hours” value was 89.8%, the “Photostability 24 hours” value worked out at 31.3% and the “Photostability Dark (24 h)” value was 95.9%. Also, the Ki on Rabbit skeletal myosin is 4.6 µM. For the same molecule, at Bovine cardiac myosin, the Ki is 68 µM and the “Ratio CMMII:NMII Ki/EC50” value was found to be 3.1.

For the molecule `Cc1ccc2c(c1)C(=O)[C@]1(O)CCN(c3ccc4ncccc4c3)C1=N2` [BPN-0027040], in data set [1], the “Photostability 4 hours” value is listed as 94.8%, the “Photostability 24 hours” value was 21.4% and the “Photostability Dark (24 h)” value is recorded as 95.7%. The Ki on Rabbit skeletal myosin came to 2.6 µM. At Bovine cardiac myosin, the Ki was 37 µM and the “Ratio CMMII:NMII Ki/EC50” value is recorded as 30.8.

For `Cc1ccc2c(c1)C(=O)[C@]1(O)CCN(c3ccc4ccncc4c3)C1=N2` [BPN-0027042], in data set [1], the “Photostability 4 hours” value is given as 92.7%, the “Photostability 24 hours” value came out at 13.8% and the “Photostability Dark (24 h)” value is given as greater than 99%. Moreover, the Ki at Rabbit skeletal myosin stood at 10 µM. In addition, the “Ratio CMMII:NMII Ki/EC50” value on Bovine cardiac myosin is “NMII-sel”.

For `O=C1c2c(sc3c2CCCC3)N=C2N(c3ccccc3)CC[C@@]12O` [BPN-0027043], in data set [1], the “Photostability 4 hours” value was 97.7%, the “Photostability 24 hours” value is recorded as 72.3% and the “Photostability Dark (24 h)” value is recorded as greater than 99%. Further, the Ki at Rabbit skeletal myosin turned out to be 15 µM. In addition, the “Ratio CMMII:NMII Ki/EC50” value on Bovine cardiac myosin is “NMII-sel”.

Take `Cc1cc2c(cc1C(F)(F)F)N=C1N(c3ccc(C#N)cc3)CC[C@@]1(O)C2=O` [BPN-0027071]: in data set [1], the “Photostability 4 hours” value is listed as greater than 99%, the “Photostability 24 hours” value is 95.3% and the “Photostability Dark (24 h)” value is recorded as greater than 99%. Moreover, the inhibition constant Ki at Rabbit skeletal myosin was determined as 20 µM. Besides, the “Ratio CMMII:NMII Ki/EC50” value at Bovine cardiac myosin is given as “NMII-sel”.

In the case of `Cc1cc2c(s1)C(=O)[C@]1(O)CCN(c3ccc(C#N)c(C)c3)C1=N2` [BPN-0027072], in data set [1], the “Photostability 4 hours” value was greater than 99%, the “Photostability 24 hours” value is given as greater than 99% and the “Photostability Dark (24 h)” value is listed as greater than 99%. On Rabbit skeletal myosin, the inhibition constant Ki is 5 µM. Also, at Bovine cardiac myosin, the inhibition constant Ki was 31 µM and the “Ratio CMMII:NMII Ki/EC50” value was found to be 3.1.

Consider `Cc1cc2c(s1)C(=O)[C@]1(O)CCN(c3cccc(Br)c3)C1=N2` [BPN-0027074], for which, in data set [1], the “Photostability 4 hours” value worked out at 95.8%, the “Photostability 24 hours” value stood at 93.4% and the “Photostability Dark (24 h)” value was determined as 94.5%. The inhibition constant Ki on Rabbit skeletal myosin stood at 16 µM. At Bovine cardiac myosin, the Ki came to 77 µM and the “Ratio CMMII:NMII Ki/EC50” value came out at 3.7.

`Cc1cc2c(cc1C(F)(F)F)N=C1N(c3ccc(Cl)cc3)CC[C@@]1(O)C2=O` [BPN-0027080]: in data set [1], the “Photostability 4 hours” value stood at 98.1%, the “Photostability 24 hours” value was found to be 88.1% and the “Photostability Dark (24 h)” value is listed as greater than 99%. Besides, the Ki at Rabbit skeletal myosin stood at 4.8 µM. The “Ratio CMMII:NMII Ki/EC50” value on Bovine cardiac myosin was “NMII-sel”.
